Experimental data as given in patent publication US5523321A, “Prostacyclins, their analogs or prostaglandins and thromboxane antagonists for treatment of thrombotic and thromboembolic syndromes” (Schering Aktiengeselleschaft, priority 1985, dated 1996).
Read-outs that look alike come from different tables or passages of the source.

Key:
[1] = test system: intravascular thrombocyte aggregation (collagen-induced thrombocytopenia); experiment: Intravascular thrombocyte aggregation on anesthetized rats (collagen-induced thrombocytopenia); assay type: in vivo
Description: 2. Intravascular Thrombocyte Aggregation on Anesthetized Rats
The influence of the intravascular thrombocyte aggregation is examined on urethane anesthetized rats.
Collagen (100 micrograms/kg i.v. bolus) causes transitory thrombocytopenias (a transient loss of blood platelet concentration), measured by continuous taking of blood from the A. carotis (50 microliter/min) and thrombocyte counting in the Technicon Autocounter. The change of the collagen-induced thrombocytopenia (% of loss) in comparison with the initial value (=2nd collagen injection) serves as a measurement for the inhibition of the intravascular platelet aggregation.

jugular vein thrombosis = experiment: Jugular vein thrombosis on anesthetized rats; assay type: in vivo
Description: 4. Jugular Vein Thrombosis on Anesthetized Rats
By stressing of the jugular vein of rats anesthetized with urethane with a metal punch cooled to -15° C. (200 g, 2 min) the vessel is predamaged. The thrombus grown within 3 hours on this site is quantified (Hb content wet weight) by determinations of its Hb content (difference damaged-undamaged vessel segment).
The infusion of the test substances begins 15 min before damaging the vein and is continued until the end of the test.

[2] = test system: mesenteric arteriole thrombosis (topical ADP); experiment: Mesenteric arteriole thrombosis on anesthetized guinea pigs; assay type: in vivo
Description: 3. Mesenteric Arteriole Thrombosis on Anesthetized Guinea Pigs
A mesenteric loop for vital microscopy is prepared on anesthetized guinea pigs. After electrical lesion of an arteriole, under controlled conditions and after substance application, ADP is applied topically until finding of a thrombogenic dose (occlusion by platelet thrombus).
Parameters: increasing of the thrombogenic ADP concentration vs. initial value; i.v. infusion of Iloprost, i.v. injection of BM 13 177.

[3] = test system: platelet shape change induced by U 46 619 (human PRP); experiment: Thrombocyte function in vitro: shape change by U 46 619 (human PRP); assay type: cell-based; settings: for IC50: human PRP, stimulant U 46 619
Description: (§1) 1. Thrombocyte Function In Vitro (Human PRP)
(§2) BM 13 177 (in the text, BM) and Iloprost are tested in their action on thrombocyte aggregation and thrombocyte shape change against stimulants U 46 619 (9,11-dideoxy,9alpha-11alpha-methanoepoxy PGF2alpha, stable TXA2 agonist) and ADP and the IC50 values are determined. Then in several independent tests the action of a combination of the two substances on the aggregation (U 46 619 and ADP) in various concentrations is tested; especially the combination of low dosages and of dosages of the two substances in the range of the IC50 values is tested.
(§3) Platelet aggregation and shape change are measured as light-optical phenomena in stimulated PRP (platelet rich plasma) samples. In this case, the shape change is detected as the density increase of the sample by transition of the discoid rest shape of the platelet into a spherozytic shape with formation of pseudopodlike membrane formations and represented on a recorder. The aggregation is photometrically detected as density […] by clumping and "precipitation" of platelet aggregates and represented on a recorder.
Example 2: Shape change by 50 ng/ml U 46 619

[4] = test system: platelet aggregation induced by U 46 619 (human PRP); experiment: Thrombocyte function in vitro: aggregation by U 46 619 (human PRP); assay type: cell-based
Description: as §1, §2, §3

[5] = test system: 2nd wave of aggregation induced by ADP (human PRP); experiment: Thrombocyte function in vitro: 2nd wave of aggregation by ADP (human PRP); assay type: cell-based; settings: for % Inhibition (2nd wave of aggregation): 0.5×10^-6 M ADP; for IC50: human PRP, stimulant ADP
Description: as §1, §2, §3
Example 3: 2nd wave of aggregation by 0.5×10^-6 M ADP

[6] = Blood pressure of spontaneously hypertonic (SH) rats; settings: Iloprost 0.3 microgram/kg/min (threshold dose), awake SH rats

## O=C(O)COc1ccc(CCNS(=O)(=O)c2ccccc2)cc1 [BM 13 177, 4-[2-(benzenesulfonamido)-ethyl]-phenoxyacetic acid]
[1]; BM 13 177 0.5 mg/kg/min (lowest dosage), MW±SE
  inhibition of collagen-induced thrombocytopenia: about 27±6%
[1]; BM 13 177 2 mg/kg i.v. infusion
  platelet inhibition in vivo: 27%
[1]; BM 13 177 1.0-2.0 mg/kg/min
  inhibition of collagen-induced thrombocytopenia on raising the dosage (in words): cannot be increased by raising the dosage
Jugular vein thrombosis; BM 13 177 20 mg/kg i.v. bolus + 50 micrograms/kg/min i.v., monotherapy
  antithrombotic effect, Hb content of thrombi (in words): ineffective
Jugular vein thrombosis; BM 13 177 as monotherapy
  antithrombotic effect (in words): not antithrombotically effective
[2]; BM 13 177 25 mg/kg i.v., significant
  increase of thrombogenic ADP concentration (factor): ~4
[3]; Homo sapiens, Platelet, 0.66 microM BM 13 177, 50 ng/ml U 46 619
  inhibition at 0.66 µM: 28%
[3]; Platelet, BM 13 177, read-out: IC50 for the shape change
  IC50: 1650 to 3300 nM
[4]; BM 13 177, human PRP, stimulant U 46 619, read-out: IC50 for the aggregation
  IC50: 1650 to 6600 nM
[4]; Homo sapiens, 0.66 microM BM 13 177, 100 ng/ml U 46 619
  inhibition at 0.66 µM: 16%
[5]; 0.165 microM BM 13 177
  % Inhibition (2nd wave of aggregation): no inhibition
[5]; BM 13 177
  IC50: 330 to 660 nM

## CC#CCC(C)[C@H](O)/C=C/[C@@H]1[C@H]2C/C(=C/CCCC(=O)O)C[C@H]2C[C@H]1O (stereo partly shown) [Iloprost]
[1]; Iloprost 0.1-0.33-1.0 micrograms/kg/min
  inhibition of collagen-induced thrombocytopenia (in words): inhibits the collagen-induced thrombocytopenia, depending on the dose
Jugular vein thrombosis; Iloprost 30 ng/kg/min i.v., individual dose
  antithrombotic effect, Hb content of thrombi (in words): not significantly effective
[2]; Iloprost 0.1 microgram/kg/min i.v. (threshold dose)
  increase of thrombogenic ADP concentration (factor): 2.8
[3]; 0.1 ng/ml Iloprost, 50 ng/ml U 46 619
  % Inhibition (shape change): no inhibition
[3]; Platelet, Iloprost, read-out: IC50 for the shape change inhibition
  IC50: 0.52 to 1.3 nM
[4]; Homo sapiens, 0.1 ng/ml Iloprost, 100 ng/ml U 46 619
  inhibition at 0.0001 µg/mL: 2%
[4]; Iloprost, human PRP, stimulant U 46 619, read-out: IC50 for the aggregation inhibition
  IC50: 1.3 to 2.6 nM
[6]
  reduction of diastolic blood pressure: 20%
[5]; 0.1 ng/ml Iloprost
  % Inhibition (2nd wave of aggregation): no inhibition
[5]; Iloprost
  IC50: 0.26 to 0.65 nM
